According to ChEMBL document CHEMBL5149987, “Design, Synthesis, and Evaluation of WD-Repeat-Containing Protein 5 (WDR5) Degraders” (J Med Chem, 2021):
Activity calls are given as the source filed them. The calls are words filed in the database; no cut-off is given here.

What was measured:
[1] = target: T1, WD repeat-containing protein 5 (Homo sapiens, UniProt P61964)
Description: Binding affinity to recombinant WDR5 (unknown origin) expressed in Escherichia coli BL21 assessed as shift in melting temperature by DSF assay

[2] = target: T1, WD repeat-containing protein 5; assay: (§1) Displacement of N-(4'-((17-(5,5-difluoro-7-(1H-pyrrol-2-yl)-5H-5l4,6l4-dipyrrolo[1,2-c:2',1'-f][1,3,2]diazaborinin-3-yl)-15-oxo-4,7,10-trioxa-14-azaheptadecyl)carbamoyl)-4-(4-methylpiperazin-1-yl)-[1,1'-biphenyl]-3-yl)-6-hydroxy-4-(trifluoromethyl)nicotinamide tracer from N-/C-terminal NanoLuc-fused full-length WDR5 (unknown origin) transfected in HEK293T cells incubated for 2 hrs by NanoBRET assay; type: cell-based
[3] = target: T1, WD repeat-containing protein 5; assay: as §1, with “cell lysate” for “cells”; type: subcellular
[4] = target: T1, WD repeat-containing protein 5; remark: listed apart in the source
Description: Binding affinity to recombinant WDR5 (unknown origin) expressed in Escherichia coli BL21 assessed as change in entropy by isothermal titration calorimetry

[5] = target: T1, WD repeat-containing protein 5; remark: listed apart in the source
Description: Binding affinity to recombinant WDR5 (unknown origin) expressed in Escherichia coli BL21 assessed as change in enthalpy by isothermal titration calorimetry

[6] = target: T1, WD repeat-containing protein 5; assay: Binding affinity to recombinant WDR5 (unknown origin) expressed in Escherichia coli BL21 assessed as dissociation constant by isothermal titration calorimetry
MV4-11 [7] = assay: Cytotoxicity against human MV4-11 cells assessed as defect in cell proliferation at 10 uM incubated for 15 days with replacement of fresh medium containing compound on every third day; type: functional, cell-based; details: time 15.0 day
MV4-11 [8] = assay: Cytotoxicity against human MV4-11 cells expressing VHL assessed as defect in cell proliferation at 5 to 10 uM incubated for 15 days with replacement of fresh medium containing compound on every third day; type: functional, cell-based; details: dose 5-10 µM, time 15.0 day

| SMILES | deltaTm [1] | IC50 [2] | IC50 [3] | deltaTm ([1]; filed as modulator) | TdeltaS [4] | deltaH [5] | Kd [6] | Activity (MV4-11 [7]) | Activity (MV4-11 [8]) |
| --- | --- | --- | --- | --- | --- | --- | --- | --- | --- |
| Cc1ncsc1-c1ccc(CNC(=O)[C@@H]2C[C@@H](O)CN2C(=O)[C@@H](NC(=O)CCOCCOCCOCCOCCOCCOc2ccc(-c3cn4c(n3)CCC4)cc2CNC(=O)Cc2ccc(Cl)c(Cl)c2)C(C)(C)C)cc1 | 4.3 K | ≥ 50 µM | ≥ 50 µM | – | – | – | – | – | – |
| COc1cc(C(=O)NCCOCCOCCOCCOCCOCCOCCOCCNC(=O)c2ccc(-c3ccc(N4CCN(C)CC4)c(NC(=O)c4c[nH]c(=O)cc4C(F)(F)F)c3)cc2)ccc1NC(=O)[C@@H]1N[C@@H](CC(C)(C)C)[C@](C#N)(c2ccc(Cl)cc2F)[C@H]1c1cccc(Cl)c1F | 0.3 K | ≥ 50 µM | ≥ 50 µM | – | – | – | – | – | – |
| COc1cc(C(=O)NCCOCCNC(=O)c2ccc(-c3ccc(N4CCN(C)CC4)c(NC(=O)c4c[nH]c(=O)cc4C(F)(F)F)c3)cc2)ccc1NC(=O)[C@@H]1N[C@@H](CC(C)(C)C)[C@](C#N)(c2ccc(Cl)cc2F)[C@H]1c1cccc(Cl)c1F | 0.9 K | ≥ 50 µM | ≥ 50 µM | – | – | – | – | – | – |
| Cc1ncsc1-c1ccc(CNC(=O)[C@@H]2C[C@@H](O)CN2C(=O)[C@@H](NC(=O)CCOCCOCCOCCOCCOc2cc(-c3cn4c(n3)CCC4)ccc2CNC(=O)Cc2ccc(Cl)c(Cl)c2)C(C)(C)C)cc1 | 3.4 K | ≥ 50 µM | ≥ 50 µM | – | – | – | – | – | – |
| COc1ccc(-c2cn3c(n2)CCC3)cc1CNC(=O)Cc1ccc(Cl)c(Cl)c1 | – | ≥ 50 µM | ≥ 50 µM | 4.2 K | 0.7 kcal/mol | -10 kcal/mol | 125 µM | – | – |
| Cc1ncsc1-c1ccc(CNC(=O)[C@@H]2C[C@@H](O)CN2C(=O)[C@@H](NC(=O)CCOCCOCCOc2ccc(-c3cn4c(n3)CCC4)cc2CNC(=O)Cc2ccc(Cl)c(Cl)c2)C(C)(C)C)cc1 | – | – | – | – | – | – | – | Active | Active |
| Cc1ncsc1-c1ccc(CNC(=O)[C@@H]2C[C@@H](O)CN2C(=O)[C@@H](NC(=O)CCOCCOc2ccc(-c3cn4c(n3)CCC4)cc2CNC(=O)Cc2ccc(Cl)c(Cl)c2)C(C)(C)C)cc1 | 7 K | ≥ 50 µM | ≥ 50 µM | – | – | – | – | – | – |
| COc1cc(C(=O)NCc2ccc(CNC(=O)c3ccc(-c4ccc(N5CCN(C)CC5)c(NC(=O)c5c[nH]c(=O)cc5C(F)(F)F)c4)cc3)cc2)ccc1NC(=O)[C@@H]1N[C@@H](CC(C)(C)C)[C@](C#N)(c2ccc(Cl)cc2F)[C@H]1c1cccc(Cl)c1F | 0.7 K | ≥ 50 µM | ≥ 50 µM | – | – | – | – | – | – |
| Cc1ncsc1-c1ccc(CNC(=O)[C@@H]2C[C@@H](O)CN2C(=O)[C@@H](NC(=O)CCOCCOCCOCCOCCOCCOCCOCCOc2ccc(-c3cn4c(n3)CCC4)cc2CNC(=O)Cc2ccc(Cl)c(Cl)c2)C(C)(C)C)cc1 | 4.6 K | ≥ 50 µM | ≥ 50 µM | – | – | – | – | – | – |
| Cc1ncsc1-c1ccc(CNC(=O)[C@@H]2C[C@@H](O)CN2C(=O)[C@@H](NC(=O)CCOCCOCCOCCOc2ccc(-c3cn4c(n3)CCC4)cc2CNC(=O)Cc2ccc(Cl)c(Cl)c2)C(C)(C)C)cc1 | 3.6 K | ≥ 50 µM | ≥ 50 µM | – | – | – | – | – | – |
| Cc1ncsc1-c1ccc(CNC(=O)[C@@H]2C[C@@H](O)CN2C(=O)[C@@H](NC(=O)CCOCCOCCOCCOCCOCCOCCOc2ccc(-c3cn4c(n3)CCC4)cc2CNC(=O)Cc2ccc(Cl)c(Cl)c2)C(C)(C)C)cc1 | 4.5 K | ≥ 50 µM | ≥ 50 µM | – | – | – | – | – | – |
